# Data taken from patent US20080207614A1, “QUINAZOLINE DERIVATIVES FOR THE TREATMENT AND PREVENTION OF DIABETES AND OBESITY” (SK CHEMICALS CO., LTD., priority 2004, published 2008).
# Assays:
# AMPK = test: Measurement of AMPK activity by Western blot in C2C12 cells; assay type: cell-based; set-up: key to AMPK activity (degree of phosphorylation of serine-79 and threonine-172): fold increase in threonine-172 phosphorylation; conditions: 10 μM for 50 minutes; for AMPK activity (class: degree of phosphorylation of threonine-172): strong/mild/weak; for AMPK activity (degree of phosphorylation of serine-79 and threonine-172): no superscript: Western blot of serine-79 and threonine-172 phosphorylation
# Outline: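 Western blot readout of AMPK Thr-172 and ACC Ser-79 phosphorylation, normalised against ERK, served as the activity measure. Cells were C2C12 after differentiation, treated 50 minutes with 10 μM test material. Grading by Thr-172 increase: ≥3-fold strong, 1-3-fold mild, <1-fold weak.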
# C2C12 muscle cells = test: Analysis of glucose absorption (2-deoxyglucose) in differentiated C2C12 muscle cells; assay type: cell-based; conditions: test materials 10 μM, times relative to control group
# Outline: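 Uptake of 0.2 μCi 2-deoxyglucose over 20 min, counted radiometrically in lysed cells. Before tracer, compounds (10 μM) were applied for 30 min to C2C12 cells differentiated 6 days in 1% serum and equilibrated 3 h in 5 mM glucose KRB.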
Structure (SMILES),AMPK activity (class: degree of phosphorylation of threonine-172) (AMPK),Glucose absorption (C2C12 muscle cells),AMPK activity (degree of phosphorylation of serine-79 and threonine-172) (AMPK)
"CCSc1nc(NCCCCc2ccccc2)c2ccccc2n1 [Compound 30, (2-Ethylsulfanylquinazolino-4-yl)-(4-phenylbutyl)-amine]",mild (“mild” means that the degree of phosphorylation of threonine-172 increased by 1 to 3 times),1.8,
"CCSc1nc(NCc2cccc3ccccc23)c2ccccc2n1 [Compound 35, (2-Ethylsulfanylquinazolino-4-yl)-naphthaleno-1-ylmethyl amine]",strong (“strong” means that the degree of phosphorylation of threonine-172 increased by 3 times or more),1.9,
"CCSc1nc(NCc2ccc3c(c2)OCO3)c2ccccc2n1 [Compound 37, Benzo[1,3]dioxol-5-ylmethyl-(2-ethylsulfanylquinazolino-4-yl)-amine]",strong (“strong” means that the degree of phosphorylation of threonine-172 increased by 3 times or more),2.2,
"CCSc1nc(NCc2c(F)cccc2Cl)c2ccccc2n1 [Compound 49, (2-Chloro-6-fluorobenzyl)-(2-ethylsulfanylquinazolino-4-yl)-amine]",mild (“mild” means that the degree of phosphorylation of threonine-172 increased by 1 to 3 times),1.8,
"CCCNc1nc(-c2ccccc2)nc2ccccc12 [Compound 61, (2-Phenylquinazolino-4-yl)-propylamine]",weak (“weak” means that the degree of phosphorylation of threonine-172 increased by less than 1 time),1.9,
"c1ccc(-c2nc(NCCN3CCCCC3)c3ccccc3n2)cc1 [Compound 101, (2-Phenylquinazolino-4-yl)-(2-piperidino-1-ylethyl)-amine]",weak (“weak” means that the degree of phosphorylation of threonine-172 increased by less than 1 time),1.5,
"Fc1cccc(CCNc2nc(-c3ccccc3)nc3ccccc23)c1 [Compound 103, [2-(3-Fluorophenyl)-ethyl]-(2-phenylquinazolino-4-yl)-amine]",strong (“strong” means that the degree of phosphorylation of threonine-172 increased by 3 times or more),2.2,2.6
"c1ccc(-c2nc(NCCN3CCOCC3)c3ccccc3n2)cc1 [Compound 106, (2-Morpholino-4-ylethyl)-(2-phenylquinazolino-4-yl)-amine]",mild (“mild” means that the degree of phosphorylation of threonine-172 increased by 1 to 3 times),1.8,1.3
"Clc1ccc(CNc2nc(-c3ccccc3)nc3ccccc23)c(Cl)c1 [Compound 108, (2,4-Dichlorobenzyl)-(2-phenylquinazolino-4-yl)-amine]",strong (“strong” means that the degree of phosphorylation of threonine-172 increased by 3 times or more),2.2,2.2
"Clc1ccccc1CNc1nc(-c2ccccc2)nc2ccccc12 [Compound 109, (2-Chlorobenzyl)-(2-phenylquinazolino-4-yl)-amine]",strong (“strong” means that the degree of phosphorylation of threonine-172 increased by 3 times or more),1.3,1.9
"c1ccc(-c2nc(NC3CC3)c3ccccc3n2)cc1 [Compound 110, Cyclopropyl-(2-phenylquinazolino-4-yl)-amine]",strong (“strong” means that the degree of phosphorylation of threonine-172 increased by 3 times or more),2.0,1.6
"c1ccc(-c2nc(NCc3cccnc3)c3ccccc3n2)cc1 [Compound 111, (2-Phenylquinazolino-4-yl)-pyridino-3-ylmethylamine]",strong (“strong” means that the degree of phosphorylation of threonine-172 increased by 3 times or more),2.4,1.8
"CC(CO)Nc1nc(-c2ccccc2)nc2ccccc12 (stereo not drawn) [Compound 112, 2-(2-Phenylquinazolino-4-ylamino)-propane-1-ol]",strong (“strong” means that the degree of phosphorylation of threonine-172 increased by 3 times or more),1.9,1.7
"COc1cc(CNc2nc(-c3ccccc3)nc3ccccc23)ccc1O [Compound 113, 2-Methoxy-4-[(2-phenylquinazolino-4-ylamino)-methyl]-phenol]",strong (“strong” means that the degree of phosphorylation of threonine-172 increased by 3 times or more),2.1,2.1
"FCCNc1nc(-c2ccccc2)nc2ccccc12 [Compound 114, (2-Fluoro-ethyl)-(2-phenylquinazolino-4-yl)-amine]",strong (“strong” means that the degree of phosphorylation of threonine-172 increased by 3 times or more),2.2,2.0
"Clc1cccc(CNc2nc(-c3ccccc3)nc3ccccc23)c1Cl [Compound 115, (2,3-Dichlorobenzyl)-(2-phenylquinazolino-4-yl)-amine]",strong (“strong” means that the degree of phosphorylation of threonine-172 increased by 3 times or more),2.3,2.3
"O=[N+]([O-])c1cccc(CNc2nc(-c3ccccc3)nc3ccccc23)c1 [Compound 116, (3-Nitrobenzyl)-(2-phenylquinazolino-4-yl)-amine]",strong (“strong” means that the degree of phosphorylation of threonine-172 increased by 3 times or more),2.5,2.0
"COc1ccc(CNc2nc(-c3ccccc3)nc3ccccc23)cc1OC [Compound 118, (3,4-Dimethoxybenzyl)-(2-phenylquinazolino-4-yl)-amine]",strong (“strong” means that the degree of phosphorylation of threonine-172 increased by 3 times or more),2.1,2.0
"Cc1ccc(CCNc2nc(-c3ccccc3)nc3ccccc23)cc1 [Compound 119, (2-Phenylquinazolino-4-yl)-(2-p-tollylethyl)-amine]",strong (“strong” means that the degree of phosphorylation of threonine-172 increased by 3 times or more),2.6,2.3
"CCC(CC)Nc1nc(-c2ccccc2)nc2ccccc12 [Compound 121, (1-Ethylpropyl)-(2-phenylquinazolino-4-yl)-amine]",strong (“strong” means that the degree of phosphorylation of threonine-172 increased by 3 times or more),2.4,2.2
"Clc1ccc(CCNc2nc(-c3ccccc3)nc3ccccc23)cc1 [Compound 123, [2-(4-chlorophenyl)-ethyl]-(2-phenylquinazolino-4-yl)-amine]",strong (“strong” means that the degree of phosphorylation of threonine-172 increased by 3 times or more),2.1,2.3
"CC(C)CC(C)Nc1nc(-c2ccccc2)nc2ccccc12 (stereo not drawn) [Compound 125, (1,3-Dimethylbutyl)-(2-phenylquinazolino-4-yl)-amine]",strong (“strong” means that the degree of phosphorylation of threonine-172 increased by 3 times or more),2.8,1.8
"Clc1cccc(CCNc2nc(-c3ccccc3)nc3ccccc23)c1 [Compound 126, [2-(3-Chlorophenyl)-ethyl]-(2-phenylquinazolino-4-yl)-amine]",strong (“strong” means that the degree of phosphorylation of threonine-172 increased by 3 times or more),2.1,2.0
"Fc1ccc(CCNc2nc(-c3ccccc3)nc3ccccc23)cc1F [Compound 128, [2-(3,4-Difluorophenyl)-ethyl]-(2-phenylquinazolino-4-yl)-amine]",strong (“strong” means that the degree of phosphorylation of threonine-172 increased by 3 times or more),2.3,1.7
"CC(C)CCNc1nc(-c2ccccc2)nc2ccccc12 [Compound 130, (3-Methylbutyl)-(2-phenylquinazolino-4-yl)-amine]",strong (“strong” means that the degree of phosphorylation of threonine-172 increased by 3 times or more),2.2,1.8
